From patent US8481738B2, “Gonadotropin-releasing hormone receptor antagonists and methods relating thereto” (Neurocrine Biosciences, Inc., priority 2007, dated 2013) come the findings set out here.

In this test the target is T1, human GnRH receptor (Homo sapiens, UniProt P30968).
T1 construct: expressed in transfected cells; host or cells: RBL cells, stably transfected (in general)
T1 sequence (P30968 1-328): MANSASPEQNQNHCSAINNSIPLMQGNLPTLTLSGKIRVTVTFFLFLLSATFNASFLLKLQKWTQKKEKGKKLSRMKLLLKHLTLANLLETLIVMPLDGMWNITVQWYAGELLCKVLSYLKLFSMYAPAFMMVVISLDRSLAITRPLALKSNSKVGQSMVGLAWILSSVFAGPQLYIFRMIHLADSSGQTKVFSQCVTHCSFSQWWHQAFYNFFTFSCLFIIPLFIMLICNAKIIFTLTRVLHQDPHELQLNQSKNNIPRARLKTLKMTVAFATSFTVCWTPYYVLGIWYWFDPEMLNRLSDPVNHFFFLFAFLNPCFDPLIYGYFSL
Put plainly: Peptide competition radioligand binding displacement assay, human GnRH receptor membranes. As to conditions: one or more of the peptide competition human receptor binding assays. In a few lines: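 Membranes for radioligand binding were prepared from RBL cells stably expressing human GnRH receptor, which were lysed by nitrogen cavitation at 900 psi, 4° C. Membranes from HEK293 cells stably transfected with human receptor were held in 10 mM HEPES pH 7.5, 150 mM NaCl, 0.1% BSA. Transiently transfected COS-7 cells were used for other species.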

The term Ki denotes the dissociation constant of the complex between target and ligand, obtained from inhibition or displacement. Read a low Ki as a stronger hold on the target. With `COC(=O)CCCOc1cccc(C)c1N(C)C(=O)c1ccc(Cl)c(-c2cnc(C(F)(F)F)cc2C#N)c1` [3-11], the Ki is no more than 100 nM.
Take `COc1cccc(C)c1N(C)C(=O)c1cc(-c2cnc(C#N)cc2C)c(Cl)cc1OCCCCO` [21-2]: the Ki was no more than 100 nM.
The compound `Cc1cccc(C)c1N(C)C(=O)c1cc(-c2nc3ccccc3cc2C#N)c(Cl)cc1OCCCC(=O)O` [22-6] gave an inhibition constant (Ki) of no more than 100 nM.
Next, `CN(C(=O)c1ccc(Cl)c(-c2ncc(Cl)cc2Cl)c1)c1cccc(F)c1` [19-3]: no more than 100 nM; `COc1cccc(C)c1N(C)C(=O)c1cc(-c2cnc(C(F)(F)F)cc2C#N)c(Cl)cc1OCCC(=O)O` [22-10]: no more than 100 nM.
For `CN(C(=O)c1ccc(Cl)c(-c2cnc(C(F)(F)F)cc2C#N)c1)c1ccccc1OCCCc1nnn[nH]1` [28-1, 4-Chloro-3-(4-cyano-6-trifluoromethyl-pyridin-3-yl)-N-methyl-N-{2-[3-(1H-tetrazol-5-yl)-propoxy]-phenyl}-benzamide], the Ki was no more than 100 nM.
`Cc1cccc(OCCC(=O)O)c1N(C)C(=O)c1ccc(Cl)c(-c2ccc(C(F)(F)F)cc2C#N)c1` [11-8] came in with a Ki of no more than 100 nM.
Take `Cc1cc(Cl)c(-c2cc(C(=O)N(C)c3cccc(C(F)(F)F)c3C)ccc2Cl)cn1` [2-24]: the Ki is no more than 100 nM.
Turning to `COc1cccc(C)c1N(C)C(=O)c1ccc(Cl)c(-c2cnc(Cl)cc2Cl)c1` [2-29], the Ki was no more than 100 nM.
For `COc1ccccc1N(C)C(=O)c1cc(-c2cnc(C(F)(F)F)cc2C#N)c(Cl)cc1OCCN` [42-16] the value was no more than 100 nM.
As to `Cc1cc(C#N)ncc1-c1cc(C(=O)N(C)c2c(C)cccc2OCCC(=O)O)ccc1Cl` [11-6], the Ki was no more than 100 nM.
On to `COc1ccccc1N(C)C(=O)c1ccc(Cl)c(-c2cnc(C(F)(F)F)cc2C#N)c1` [2-14], for which the Ki was no more than 100 nM.
As to `CN(C(=O)c1cc(-c2cnc(C(F)(F)F)cc2C#N)c(Cl)cc1OCCCC(=O)O)c1ccccc1-c1ccco1` [34-16], the Ki was no more than 100 nM.
In turn, `COc1ccccc1N(C)C(=O)c1cc(-c2cnc(C(F)(F)F)cc2C#N)c(Cl)cc1OCCCc1cn[nH]c1` [42-7] registered a Ki of no more than 100 nM.
`Cc1c(Cl)cccc1N(C)C(=O)c1ccc(Cl)c(-n2c(C)cc(C(F)(F)F)nc2=O)c1` [30-12] displayed a Ki of no more than 100 nM.
The compound `COc1ccccc1N(C)C(=O)c1cc(-c2cnc(C(F)(F)F)cc2C#N)c(Cl)cc1OCC(N)CO` (stereo not shown) [42-18] came in with a Ki of no more than 100 nM.
Take `COC(=O)CCCc1ccccc1N(C)C(=O)c1ccc(Cl)c(-c2cnc(C(F)(F)F)cc2C#N)c1` [13-3]: the Ki was no more than 100 nM.
Next, `Cc1cc(C(F)(F)F)nc(=O)n1-c1cc(C(=O)N(C)c2cc(F)ccc2Cl)ccc1Cl` [30-9]: no more than 100 nM.
In turn, `COc1ccccc1CN(C)C(=O)c1cc(-c2cnc(C(F)(F)F)cc2C#N)c(Cl)cc1OC` [39-17] returned a Ki of no more than 100 nM.
`Cc1cccc(C)c1N(C)C(=O)c1ccc(Cl)c(-c2ncc(Cl)cc2Cl)c1` [19-8] yielded a Ki of no more than 100 nM.
Regarding `COc1ccccc1N(C)C(=O)c1ccc(Cl)c(-c2ccc(C#N)nc2)c1` [2-2, 4-chloro-3-(6-cyano-pyridin-3-yl)-N-(2-methoxy-phenyl)-N-methyl-benzamide], the inhibition constant (Ki) was no more than 100 nM.
For `Cc1cc(Cl)cnc1-c1cc(C(=O)N(C)c2cccc(C)c2C)ccc1Cl` [2-71] the value was no more than 100 nM; for `COc1ccccc1N(C)C(=O)c1ccc(Cl)c(-n2c(C)cc(C(F)(F)F)nc2=O)c1` [30-15], no more than 100 nM; for `COc1cccc(C)c1N(C)C(=O)c1cc(-c2cnc(C(F)(F)F)cc2C#N)c(Cl)cc1OCC(=O)O` [22-9], no more than 100 nM.
For `CN(C(=O)c1ccc(Cl)c(-c2ncc(Cl)cc2Cl)c1)c1ccccc1O` [19-1, 4-Chloro-3-(3,5-dichloro-pyridin-2-yl)-N-(2-hydroxy-phenyl)-N-methyl-benzamide] the value was no more than 100 nM.
In turn, `COc1ccccc1N(C)C(=O)c1ccc(Cl)c(-c2cnc(C(N)=O)cc2C)c1` [24-2, 5-{2-chloro-5-[(2-methoxy-phenyl)-methyl-carbamoyl]-phenyl}-4-methyl-pyridine-2-carboxylic acid amide] registered an inhibitory constant (Ki) of no more than 100 nM.
In the case of `COc1cc(Cl)c(-c2cnc(C(F)(F)F)cc2C#N)cc1C(=O)N(C)c1c(OC)cccc1OC` [39-3], the inhibition constant Ki was no more than 100 nM.
Next, `COc1cc(Cl)c(-c2cnc(C(F)(F)F)cc2C#N)cc1C(=O)N(C)c1cc(F)ccc1OC` [39-5]: no more than 100 nM.
Turning to `COc1cc(F)ccc1N(C)C(=O)c1cc(-c2cnc(C(F)(F)F)cc2C#N)c(Cl)cc1OCCCC(=O)O` [34-4], the Ki was no more than 100 nM.
Next, `COc1cc(Cl)c(-c2cnc(C(F)(F)F)cc2C#N)cc1C(=O)N(C)c1cc(F)ccc1C` [39-11]: no more than 100 nM; `COc1ccccc1N(C)C(=O)c1cc(-c2cnc(C(F)(F)F)cc2C#N)c(Cl)cc1OCCCc1ccccn1` [42-6]: no more than 100 nM.
As for `COc1cccc(C)c1N(C)C(=O)c1cc(-c2nc3ccccc3cc2C#N)c(Cl)cc1OCCCCO` [21-3], the Ki is no more than 100 nM.
As to `Cc1cc(Cl)ncc1-c1cc(C(=O)N(C)c2ccccc2OCCC(=O)O)ccc1Cl` [11-2], the Ki is no more than 100 nM.
As to `COc1ccc(OC)c(N(C)C(=O)c2cc(-c3cnc(C(F)(F)F)cc3C#N)c(Cl)cc2OCCCC(=O)O)c1` [34-13], the Ki was no more than 100 nM.
Next, `COc1ccccc1N(C)C(=O)c1cc(-c2cnc(C(F)(F)F)cc2C#N)c(Cl)cc1OCCNC(C)=O` [47-1, 2-(2-Acetylamino-ethoxy)-4-chloro-5-(4-cyano-6-trifluoromethyl-pyridin-3-yl)-N-(2-methoxy-phenyl)-N-methyl-benzamide]: no more than 100 nM.
As for `COc1ccccc1N(C)C(=O)c1cc(-c2cnc(C(F)(F)F)cc2C#N)c(Cl)cc1OCCN1CCCC1=O` [42-1, 4-Chloro-5-(4-cyano-6-trifluoromethyl-pyridin-3-yl)-N-(2-methoxy-phenyl)-N-methyl-2-[2-(2-oxo-pyrrolidin-1-yl)-ethoxy]-benzamide], the Ki is no more than 100 nM.
`Cc1ccccc1N(C)C(=O)c1ccc(Cl)c(-c2ccc(Cl)nc2)c1` [2-15] showed a Ki of no more than 100 nM.
As for `COc1ccccc1N(C)C(=O)c1cc(-c2cnc(C(F)(F)F)cc2C#N)c(Cl)cc1OCCN1CCOCC1` [42-2], the Ki was no more than 100 nM.
`COc1cccc(C)c1N(C)C(=O)c1ccc(Cl)c(-c2cnc(C(F)(F)F)cc2C)c1` [2-33] registered a Ki of no more than 100 nM.
Next, `COc1cccc(C)c1N(C)C(=O)c1cc(-c2cnc(C#N)cc2C)c(Cl)cc1OCCCC(=O)O` [22-2]: no more than 100 nM; `COC(=O)CCCOc1ccccc1N(C)C(=O)c1ccc(Cl)c(-c2cnc(C#N)cc2C)c1` [3-8]: no more than 100 nM.
For the compound `COc1ccc(Cl)cc1N(C)C(=O)c1cc(-c2cnc(C(F)(F)F)cc2C#N)c(Cl)cc1OCCCC(=O)O` [34-7], the Ki was no more than 100 nM.
For `COc1cc(Cl)c(-c2cnc(C(F)(F)F)cc2C#N)cc1C(=O)N(C)c1ccccn1` [39-14] the value was no more than 100 nM; for `Cc1cccc(C)c1N(C)C(=O)c1cc(-c2cnc(C(F)(F)F)cc2C#N)c(Cl)cc1OCCCCO` [21-4], no more than 100 nM.
`COc1ccccc1N(C)C(=O)c1cc(-c2cnc(C(F)(F)F)cc2C#N)c(Cl)cc1OCCCn1cccn1` [42-12] came in with a Ki of no more than 100 nM.
In turn, `Cc1cc(C#N)ncc1-c1cc(C(=O)N(C)c2ccccc2OCCCC(=O)O)ccc1Cl` [5-1, 4-(2-{[4-Chloro-3-(6-cyano-4-methyl-pyridin-3-yl)-benzoyl]-methyl-amino}-phenoxy)-butyric acid] had an inhibitory constant (Ki) of no more than 100 nM.
